From US20110077237A1, “KINASE INHIBITORS” (VERTEX PHARMACEUTICALS INCORPORATED, priority 2007, published 2011)
Read-outs that look alike come from different tables or passages of the source.

Columns and labels:
PKC alpha kinase = PKC alpha kinase (Homo sapiens, UniProt P17252); test: PKC Alpha coupled-enzyme kinase assay; format: biochemical; conditions: 4.5 nM PKC alpha, 130 μM ATP, 30° C.
Experimental: An assay buffer solution was prepared which consisted of 100 mM HEPES (pH 7.5), 10 mM MgCl2, 25 mM NaCl, 0.1 mM EDTA, 100 μM CaCl2 and 0.01% Brij. […] To 16 μL of this enzyme buffer, in a 384 well plate, was added 1 μL of VRT stock solution in DMSO. The mixture was allowed to equilibrate for 10 mins at 30° C. The enzyme reaction was initiated by the addition of 16 μL stock ATP solution prepared in assay buffer to a final assay concentration of 130 μM. Initial rate data was determined from the rate of change of absorbance at 340 nm (corresponding to stoichiometric consumption of NADH) using a Molecular Devices Spectramax plate reader (Sunnyvale, Calif.) over 15 mins at 30° C. For each Ki determination 12 data points covering the VRT concentration range of 0-20 μM were obtained in duplicate (DMSO stocks were prepared from an initial 10 mM VRT stock with subsequent 1:2 serial dilutions). Ki values were calculated from initial rate data by non-linear regression using the Prism software package (Prism 4.0a, Graphpad Software, San Diego, Calif.).

PKC delta kinase = PKC delta kinase (Homo sapiens, UniProt Q05655); test: PKC Delta coupled-enzyme kinase assay; format: biochemical
PKC delta kinase, sequence (Q05655 whole entry): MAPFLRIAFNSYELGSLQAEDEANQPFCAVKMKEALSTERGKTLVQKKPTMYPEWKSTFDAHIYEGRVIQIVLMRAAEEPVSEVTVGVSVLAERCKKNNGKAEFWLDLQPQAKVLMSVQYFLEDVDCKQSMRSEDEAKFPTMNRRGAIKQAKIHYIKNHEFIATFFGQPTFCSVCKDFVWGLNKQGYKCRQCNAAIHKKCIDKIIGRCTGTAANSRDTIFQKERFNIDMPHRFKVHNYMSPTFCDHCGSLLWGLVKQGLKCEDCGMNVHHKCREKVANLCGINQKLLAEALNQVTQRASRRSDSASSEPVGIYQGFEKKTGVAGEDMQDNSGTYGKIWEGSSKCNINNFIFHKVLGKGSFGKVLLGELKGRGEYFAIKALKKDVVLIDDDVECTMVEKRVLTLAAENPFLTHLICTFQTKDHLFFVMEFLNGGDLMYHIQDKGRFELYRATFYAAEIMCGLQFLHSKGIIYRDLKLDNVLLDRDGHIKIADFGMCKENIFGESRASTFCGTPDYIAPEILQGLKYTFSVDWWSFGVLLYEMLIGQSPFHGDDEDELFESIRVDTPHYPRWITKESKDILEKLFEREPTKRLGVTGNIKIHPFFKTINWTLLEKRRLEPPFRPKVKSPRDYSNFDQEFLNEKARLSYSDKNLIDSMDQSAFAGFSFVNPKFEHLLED
Experimental: An assay buffer solution was prepared which consisted of 100 mM HEPES (pH 7.5), 10 mM MgCl2, 25 mM NaCl, 0.1 mM EDTA and 0.01% Brij. […] To 16 μL of this enzyme buffer, in a 384 well plate, was added 1 μL of VRT stock solution in DMSO. The mixture was allowed to equilibrate for 10 mins at 30° C. […] Ki values were calculated from initial rate data by non-linear regression using the Prism software package (Prism 4.0a, Graphpad Software, San Diego, Calif.).

[1] = 46 nM PKC delta, 150 μM ATP, 30° C., read-out: Ki PKC delta

Compound | Ki (PKC alpha kinase) [nM] | Ki (PKC delta kinase; [1]) [nM] | Ki (PKC delta kinase) [nM]
CCCc1ccc(N2CCN[C@@H](CC(C)C)C2)nc1C(=O)c1cccnc1N [compound 385] | 500 to 2800 |  | 
Nc1ncc(Br)cc1C(=O)c1nc(N2CCNCC2)ccc1C(F)(F)F [compound 325] | < 50 | 50 to 500 | 
CC(=O)c1ccc(N2CCN[C@@H](CC(C)C)C2)nc1C(=O)c1cccnc1N [compound 351] | > 2800 | 500 to 2800 | 
Nc1ncccc1C(=O)c1nc(NCC2CCCN2)ccc1C(F)(F)F (centres unmarked) [compound 379] | 500 to 2800 | 500 to 2800 | 
NCCCNc1ccc(C(F)(F)F)c(C(=O)c2cccnc2N)n1 [compound 372] | 500 to 2800 | 500 to 2800 | 
Nc1ncccc1C(=O)c1nccc(N2CCNC(c3ccccc3)C2)n1 (centres unmarked) [compound 341] | > 2800 | > 2800 | 
Nc1ncccc1C(=O)c1cccc(N2CCCN(C(=O)c3sccc3Cl)CC2)n1 [compound 92] | 500 to 2800 | 500 to 2800 | 
Cc1ccc(C2CN(c3cccc(C(=O)c4cccnc4N)n3)CCN2)cc1 (centres unmarked) [compound 336] | 500 to 2800 | 500 to 2800 | 
C=Cc1cnc(N)c(C(=O)c2nc(N3CCNCC3)ccc2C(F)(F)F)c1 [compound 327] | < 50 |  | 
Nc1ncccc1C(=O)c1cccc(N2CCNC(c3ccc(Cl)cc3)C2)n1 (centres unmarked) [compound 307] | 500 to 2800 | 500 to 2800 | 
NCC1CCCN(c2cccc(C(=O)c3cccnc3N)n2)C1 (centres unmarked) [compound 333] | > 2800 | > 2800 | 
Nc1ncccc1C(=O)c1nc(OCC(N)c2ccccc2)ccc1C(F)(F)F (centres unmarked) [compound 415] | < 50 |  | 
Cc1sc(N2CCCNCC2)nc1C(=O)c1cccnc1N [compound 109] | 500 to 2800 | 500 to 2800 | 
C#Cc1cnc(N)c(C(=O)c2cccc(N3CCCNCC3)n2)c1 [compound 108] | < 50 |  | 
NCCNc1ccc(C(F)(F)F)c(C(=O)c2cccnc2N)n1 [compound 371] | 500 to 2800 | 500 to 2800 | 
Nc1ncccc1C(=O)c1nc(NC[C@@H](N)c2ccccc2)ccc1C(F)(F)F [compound 388] | < 50 |  | 
CC(C)[C@H](N)COc1ccc(C(F)(F)F)c(C(=O)c2cccnc2N)n1 [compound 400] | 500 to 2800 | 500 to 2800 | 
Nc1ncccc1C(=O)c1nc(N2CCNCC2)cnc1Cl [compound 343] | 500 to 2800 | 50 to 500 | 
NCCSc1ccc(C(F)(F)F)c(C(=O)c2cccnc2N)n1 [compound 367] | 500 to 2800 | 500 to 2800 | 
C=Cc1cnc(N)c(C(=O)c2cccc(N3CCNCC3)n2)c1 [compound 202] | < 50 |  | 

Compound | Ki (PKC alpha kinase) [nM] | Ki (PKC delta kinase; [1]) [nM] | Ki (PKC delta kinase) [nM]
Nc1ncccc1C(=O)c1nccc(N2CCNCC2)n1 [compound 344] | > 2800 | > 2800 | 
CC(C)C[C@H]1CN(c2ccc(Cl)c(C(=O)c3cccnc3N)n2)CCN1 [compound 323] | < 50 |  | 
CCc1ccc(N2CCNCC2)nc1C(=O)c1cccnc1N [compound 348] | > 2800 | 50 to 500 | 
Cc1ccc(N2CCNCC2)nc1C(=O)c1cccnc1N [compound 230] | 500 to 2800 | 500 to 2800 | 
Nc1ncccc1C(=O)c1cccc(N2CCN3CCCC3C2)n1 (single isomer, unassigned) [compound 211] |  | 50 to 500 | 
Nc1ncccc1C(=O)c1nc(N2CCNCC2)ccc1C(F)(F)F [compound 316] |  | 50 to 500 | 
Nc1ncc(-c2ccncc2)cc1C(=O)c1cccc(N2CCNC(c3ccccc3)C2)n1 (centres unmarked) [compound 288] |  | 500 to 2800 | 
CC(C)(C)CCN1CCCN(c2cccc(C(=O)c3cccnc3N)n2)CC1 [compound 44] |  | > 2800 | 
Nc1ncccc1C(=O)c1cncc(N2CCC(N)CC2)n1 [compound 161] | 500 to 2800 | 500 to 2800 | 
Cc1sc(N2CCNC(c3ccccc3)C2)nc1C(=O)c1cccnc1N (centres unmarked) [compound 256] |  | 500 to 2800 | 
CC(C)C[C@H]1CN(c2ccc(Cc3ccccc3)c(C(=O)c3cccnc3N)n2)CCN1 [compound 418] | 500 to 2800 |  | 
C=Cc1cnc(N)c(C(=O)c2nc(N3CCNCC3)ccc2Cl)c1 [compound 330] | < 50 |  | 
N#Cc1cnc(N)c(C(=O)c2cccc(N3CCCNCC3)n2)c1 [compound 302] |  | 500 to 2800 | 
CC(C)[C@@H]1CN(c2cccc(C(=O)c3cccnc3N)n2)CCN1 [compound 231] |  |  | 500 to 2800
CC(C)C[C@H]1CN(c2cccc(C(=O)c3cccnc3N)n2)CCN1C(=O)CC(F)(F)F [compound 219] |  | > 2800 | 
CC(C)C[C@H]1CN(c2cccc(C(=O)c3cc(-c4ccccc4)cnc3N)n2)CCN1 [compound 239] |  | 500 to 2800 | 
Nc1ncc(-c2cccc(O)c2)cc1C(=O)c1cccc(N2CCCNCC2)n1 [compound 172] |  | 50 to 500 | 
CC(C)[C@H](N)CNc1ccc(C(F)(F)F)c(C(=O)c2cccnc2N)n1 [compound 395] | 500 to 2800 | 500 to 2800 | 
CC(C)C[C@H]1CN(c2ccc(C3CC3)c(C(=O)c3cccnc3N)n2)CCN1 [compound 352] | 500 to 2800 |  | 

Continued, values first:

Ki (PKC alpha kinase) [nM] | Ki (PKC delta kinase; [1]) [nM] | Ki (PKC delta kinase) [nM] | Compound
< 50 | 50 to 500 |  | Nc1ncc(Br)cc1C(=O)c1nc(N2CCNC(c3ccccc3)C2)ccc1C(F)(F)F (centres unmarked) [compound 326]
500 to 2800 | 50 to 500 |  | Nc1ncccc1C(=O)c1cccc(N2CCNC(CO)C2)n1 (centres unmarked) [compound 303]
< 50 | 50 to 500 |  | Nc1ncc(CCc2ccccc2)cc1C(=O)c1cccc(N2CCCNCC2)n1 [compound 187]
< 50 | 50 to 500 |  | Nc1ncc(Br)cc1C(=O)c1cccc(N2CCNC(c3ccccc3)C2)n1 (centres unmarked) [compound 240]
500 to 2800 | 50 to 500 |  | Nc1ncccc1C(=O)c1nc(NCC2CCNC2)ccc1C(F)(F)F (centres unmarked) [compound 377]
500 to 2800 | 50 to 500 |  | CCc1ccc(N2CCNC(c3ccccc3)C2)nc1C(=O)c1cccnc1N (centres unmarked) [compound 350]
500 to 2800 | 50 to 500 |  | Nc1ncccc1C(=O)c1nc(NCC2CCCNC2)ccc1C(F)(F)F (centres unmarked) [compound 387]
500 to 2800 | 50 to 500 |  | Nc1ncccc1C(=O)c1cncc(N2CCCNCC2)n1 [compound 157]
500 to 2800 | 50 to 500 |  | COc1ccc(C2CN(c3cccc(C(=O)c4cccnc4N)n3)CCN2)cc1 (centres unmarked) [compound 310]
500 to 2800 | 50 to 500 |  | Nc1ncccc1C(=O)c1nc(N2CCNC(c3ccccc3)C2)ccc1OC(F)F (centres unmarked) [compound 360]
500 to 2800 | 50 to 500 |  | CC(C)C[C@H]1CN(c2ccc(CC(F)F)c(C(=O)c3cccnc3N)n2)CCN1 [compound 401]
500 to 2800 | 50 to 500 |  | CC(C)[C@H]1CN(c2ccc(C(F)(F)F)c(C(=O)c3cccnc3N)n2)CCN1 [compound 338]
 | 50 to 500 |  | C[C@H]1CN(c2cccc(C(=O)c3cccnc3N)n2)[C@@H](C)CN1 [compound 218]
500 to 2800 | 50 to 500 |  | CC[C@@H]1CNCCN1c1cccc(C(=O)c2cccnc2N)n1 [compound 243]
 | 50 to 500 |  | COc1cccc(-c2cnc(N)c(C(=O)c3cccc(N4CCNC(c5ccccc5)C4)n3)c2)c1 (centres unmarked) [compound 286]
 | 50 to 500 |  | Nc1ncc(-c2ccc[nH]2)cc1C(=O)c1cccc(N2CCCNCC2)n1 [compound 183]
 | 50 to 500 |  | Nc1ncccc1C(=O)c1cccc(N2CCNC(c3ccccc3Cl)C2)n1 (centres unmarked) [compound 258]
< 50 | 50 to 500 |  | CC(C)=Cc1cnc(N)c(C(=O)c2cccc(N3CCCNCC3)n2)c1 [compound 246]
500 to 2800 | 50 to 500 |  | C=Cc1ccc(N2CCNCC2)nc1C(=O)c1cccnc1N [compound 342]
< 50 | 50 to 500 |  | C=Cc1cnc(N)c(C(=O)c2cccc(N3CCNC(c4ccccc4)C3)n2)c1 (centres unmarked) [compound 241]
 | 50 to 500 |  | N#CC1(c2cccc(C(=O)c3cccnc3N)n2)CCNCC1 [compound 280]
500 to 2800 | 50 to 500 |  | Cc1ccccc1C1CN(c2cccc(C(=O)c3cccnc3N)n2)CCN1 (centres unmarked) [compound 339]
 | 50 to 500 |  | Nc1ncc(-c2ccccc2)cc1C(=O)c1cccc(N2CCNCC2)n1 [compound 206]
< 50 | 50 to 500 |  | Cc1cccc(C2CN(c3ccc(C(F)(F)F)c(C(=O)c4cccnc4N)n3)CCN2)c1 (centres unmarked) [compound 392]
< 50 | 50 to 500 |  | C=Cc1cnc(N)c(C(=O)c2nc(N3CCNC(c4ccccc4)C3)ccc2C(F)(F)F)c1 (centres unmarked) [compound 328]
500 to 2800 | 50 to 500 |  | CC(F)(F)c1ccc(N2CCNC(c3ccccc3)C2)nc1C(=O)c1cccnc1N (centres unmarked) [compound 355]
< 50 | 50 to 500 |  | C=Cc1cnc(N)c(C(=O)c2nc(N3CCNC(c4ccccc4)C3)ccc2Cl)c1 (centres unmarked) [compound 332]
 | 50 to 500 |  | COc1ccccc1C1CN(c2cccc(C(=O)c3cccnc3N)n2)CCN1 (centres unmarked) [compound 296]
 | 50 to 500 |  | CC(C)C[C@H]1CN(c2ccc(OC(F)F)c(C(=O)c3cccnc3N)n2)CCN1 [compound 356]
< 50 | 50 to 500 |  | Nc1ncc(Cc2ccccc2)cc1C(=O)c1cccc(N2CCCNCC2)n1 [compound 188]
